According to patent publication US20240059703A1 (AMGEN INC., priority 2021, published 2024):
Read-outs that look alike come from different tables or passages of the source.

Experiments:
KRAS G12C = KRAS G12C (Homo sapiens (Human), UniProt P01116, C118A/G12C); assay: 2 h coupled exchange assay; assay type: biochemical
Protocol: The term “2 h coupled exchange assay” or “20 h coupled exchange assay” as used herein refers to the assay described in the Section entitled “BIOLOGICAL EVALUATION.”

[1] = tested on: A549 (human lung carcinoma) cells; assay: Cell Viability Assay (CellTiter-Glo), A549; assay type: cell-based
Protocol: MIA PaCa-2 (human pancreatic carcinoma; ATCC CRL-1420) or A549 (human lung carcinoma; ATCC CCL-185) cells were cultured in RPMI 1640 medium containing 10% fetal bovine serum and 1× penicillin/streptomycin/L-glutamine. Cells were seeded in 384-well plates at a density of 1.67E+04 cells/mL and incubated at 37° C., 5% CO2, overnight. Serially-diluted compound or DMSO was added to the cells, and plates were incubated at 37° C., 5% CO2 for 72 h. Cell viability was measured using a CellTiter-Glo® Luminescent Cell Viability Assay kit (Promega) according to the manufacturer's protocol. The luminescence signal of treated samples was normalized to DMSO control, and data were analyzed using a 4-parameter logistic model to calculate IC50 values.

[2] = tested on: MIA PaCa-2 (human pancreatic carcinoma) cells; assay: Cell Viability Assay (CellTiter-Glo), MIA PaCa-2; assay type: cell-based
Protocol: Serially-diluted compound or DMSO was added to the cells, and plates were incubated at 37° C., 5% CO2 for 72 h. Cell viability was measured using a CellTiter-Glo® Luminescent Cell Viability Assay kit (Promega) according to the manufacturer's protocol. The luminescence signal of treated samples was normalized to DMSO control, and data were analyzed using a 4-parameter logistic model to calculate IC50 values.

[3] = Avg 2 h Coupled exchange IC50, 2 h compound pre-incubation
[4] = Avg 2 h Coupled exchange IC50, 2 h compound pre-incubation, SOS-mediated nucleotide exchange

Sequence of KRAS G12C (P01116 other isoform, or with tags, fused parts or gaps G12C/C118A): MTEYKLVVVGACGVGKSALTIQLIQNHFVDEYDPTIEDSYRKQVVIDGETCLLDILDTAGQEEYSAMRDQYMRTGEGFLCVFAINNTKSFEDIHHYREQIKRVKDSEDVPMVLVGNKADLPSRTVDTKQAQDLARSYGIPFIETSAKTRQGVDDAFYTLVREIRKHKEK

Compound | IC50 (KRAS G12C; [3]) | IC50 ([1]; Homo sapiens, A549, 72 h) | IC50 ([2]; 72 h) | IC50 ([2]; Homo sapiens, MIA PaCa-2, 72 h) | IC50 (KRAS G12C; [4]) | IC50 ([1]; 72 h) | IC50 (KRAS G12C; read-out: Avg 2 h Coupled exchange IC50, 2 h compound pre-incubation)
C=CC(=O)N1CC2(CCN(c3nc4c(c(-c5ccccc5C)c3C#N)CC[C@H](c3scnc3C)C4)C2)C1 (single isomer, unassigned) [Example 23-4] | 19 nM | 11000 nM | 184 nM | – | – | – | –
C=CC(=O)N1CC2(CCN(c3nc4c(c(-c5cc(O)ccc5Cl)c3C#N)CCN(C[C@@H]3CCCN3C)C4)C2)C1 [Example 21-28, 4-(2-chloro-5-hydroxyphenyl)-7-(((2S)-1-methyl-2-pyrrolidinyl)methyl)-2-(2-(2-propenoyl)-2,6-diazaspiro[3.4]octan-6-yl)-5,6,7,8-tetrahydro-1,7-naphthyridine-3-carbonitrile] | 473 nM | > 25000 nM | – | 314 nM | – | – | –
C=CC(=O)N1CC2(CCN(c3nc4c(ccn4C)c(-c4c(C)ccc5[nH]ncc45)c3C#N)C2)C1 [Example 1-50, 1-methyl-4-(5-methyl-1H-indazol-4-yl)-6-(2-(2-propenoyl)-2,6-diazaspiro[3.4]octan-6-yl)-1H-pyrrolo[2,3-b]pyridine-5-carbonitrile] | – | > 5000 nM | – | > 5000 nM | 498 nM | – | –
C=CC(=O)N1CC2(CCN(c3nc4c(c(-c5c(C)ccc6[nH]ncc56)c3C#N)COCCC4(F)F)C2)C1 [Example 13-15, 9,9-difluoro-4-(5-methyl-1H-indazol-4-yl)-2-(2-(2-propenoyl)-2,6-diazaspiro[3.4]octan-6-yl)-5,7,8,9-tetrahydrooxepino[4,3-b]pyridine-3-carbonitrile] | – | > 5000 nM | – | 1170 nM | 163 nM | – | –
C=CC(=O)N1CC2(CCN(c3nc(-c4c(C)ccc5[nH]ncc45)c4c(n3)C(C)CCC4)C2)C1 (stereo not drawn) [Example 1-15, 1-(6-((8)-8-methyl-4-(5-methyl-1H-indazol-4-yl)-5,6,7,8-tetrahydro-2-quinazolinyl)-2,6-diazaspiro[3.4]octan-2-yl)-2-propen-1-one] | – | > 5000 nM | – | > 5000 nM | 9060 nM | – | –
C=CC(=O)N1CC2(CCN(c3nc4c(c(-c5cc(O)ccc5C)c3C#N)C[C@H]3C[C@@H]4C3)C2)C1 (single isomer, unassigned) [Example 13-126] | – | > 5000 nM | – | > 5000 nM | 29 nM | – | –
C=CC(=O)N1CC2(CCN(c3nc4c(c(-c5cc(O)cc6ccccc56)c3C#N)[C@H]3CC[C@@H]4C3)C2)C1 (single isomer, unassigned) [Example 2-39] | – | – | 68 nM | – | 9 nM | > 5000 nM | –
C=CC(=O)N1CC2(CCN(c3nc4c(c(-c5c(C)ccc6[nH]ncc56)c3C)CCC(C)(C)C4)C2)C1 (single isomer, unassigned) [Example 2-11, (P)-1-(6-(3,7,7-trimethyl-4-(5-methyl-1H-indazol-4-yl)-5,6,7,8-tetrahydro-2-quinolinyl)-2,6-diazaspiro[3.4]octan-2-yl)-2-propen-1-one] | – | 6750 nM | – | 53 nM | 27 nM | – | –
C=CC(=O)N1CC2(CCN(c3nc4c(c(-c5ccc(F)cc5F)c3C#N)CCN(c3scnc3C)C4)[C@@H]2C)C1 [Example 21-17, 4-(2,4-difluorophenyl)-2-((5R)-5-methyl-2-(2-propenoyl)-2,6-diazaspiro[3.4]octan-6-yl)-7-(4-methyl-1,3-thiazol-5-yl)-5,6,7,8-tetrahydro-1,7-naphthyridine-3-carbonitrile] | 136 nM | 9840 nM | – | 337 nM | – | – | –
C=CC(=O)N1CC2(CCN(c3nc4c(c(-c5cccc6cccc(C)c56)n3)CCC(C)(C)C4)C2)C1 [Example 1-30, 1-(6-(7,7-dimethyl-4-(8-methyl-1-naphthalenyl)-5,6,7,8-tetrahydro-2-quinazolinyl)-2,6-diazaspiro[3.4]octan-2-yl)-2-propen-1-one] | – | 10300 nM | – | > 5000 nM | 3460 nM | – | –
C=CC(=O)N1CC2(CCN(c3nc4c(c(-c5cc(O)ccc5F)c3C#N)CCCC4)C2)C1 [Example 2-9, 4-(2-fluoro-5-hydroxyphenyl)-2-(2-(2-propenoyl)-2,6-diazaspiro[3.4]octan-6-yl)-5,6,7,8-tetrahydro-3-quinolinecarbonitrile] | – | 6120 nM | – | 2970 nM | 410 nM | – | –
C=CC(=O)N1CC2(CCN(c3nc4c(c(-c5ccccc5Cl)c3C#N)CC[C@@H](c3ccnn3C)C4)C2)C1 [Example 13-20, (7R)-4-(2-chlorophenyl)-7-(1-methyl-1H-pyrazol-5-yl)-2-(2-(2-propenoyl)-2,6-diazaspiro[3.4]octan-6-yl)-5,6,7,8-tetrahydro-3-quinolinecarbonitrile] | – | 3000 nM | – | 224 nM | 12 nM | – | –
C=CC(=O)N1CC2(CCN(c3nc4c(c(-c5c(C)ccc6[nH]ncc56)c3C#N)CC(C(C)C)C4)C2)C1 (racemic) [Example 24-1, (6R)-4-(5-methyl-1H-indazol-4-yl)-6-(2-propanyl)-2-(2-(2-propenoyl)-2,6-diazaspiro[3.4]octan-6-yl)-6,7-dihydro-5H-cyclopenta[b]pyridine-3-carbonitrile and (6S) 4-(5-methyl-1H-indazol-4-yl)-6-(2-propanyl)-2-(2-(2-propenoyl)-2,6-diazaspiro[3.4]octan-6-yl)-6,7-dihydro-5H-cyclopenta[b]pyridine-3-carbonitrile] | – | – | 1120 nM | – | – | > 5000 nM | 62 nM
C=CC(=O)N1CC2(CCN(c3nc4cc(OC)ccc4c(-c4c(C)ccc5[nH]ncc45)c3C#N)C2)C1 [Example 1-45, 7-methoxy-4-(5-methyl-1H-indazol-4-yl)-2-(2-(2-propenoyl)-2,6-diazaspiro[3.4]octan-6-yl)-3-quinolinecarbonitrile] | – | > 5000 nM | – | 332 nM | 32 nM | – | –
C=CC(=O)N1CC2(CCN(c3nc4c(c(-c5cccc(O)c5F)c3C#N)CCC(c3scnc3C)=C4)C2)C1 [Example 23-43, 4-(2-fluoro-3-hydroxyphenyl)-7-(4-methyl-1,3-thiazol-5-yl)-2-(2-(2-propenoyl)-2,6-diazaspiro[3.4]octan-6-yl)-5,6-dihydro-3-quinolinecarbonitrile] | 299 nM | 8380 nM | – | 4560 nM | – | – | –
C=CC(=O)N1CC2(CCN(c3nc4c(c(-c5c(C)c(Cl)cc6cnn(C)c56)c3C)COC(C)(C)C4)C2)C1 (single isomer, unassigned) [Example 14-89, (P)-1-(6-(4-(5-chloro-1,6-dimethyl-1H-indazol-7-yl)-3,7,7-trimethyl-7,8-dihydro-5H-pyrano[4,3-b]pyridin-2-yl)-2,6-diazaspiro[3.4]octan-2-yl)-2-propen-1-one] | 81 nM | 1800 nM | – | 80 nM | – | – | –
C=CC(=O)N1CC2(CCN(c3nc4c(c(-c5ccc(F)cc5F)c3C#N)CCN(C(C)C)C4)C2)C1 [Example 21-27, 4-(2,4-difluorophenyl)-7-(2-propanyl)-2-(2-(2-propenoyl)-2,6-diazaspiro[3.4]octan-6-yl)-5,6,7,8-tetrahydro-1,7-naphthyridine-3-carbonitrile] | 918 nM | 16500 nM | – | 2990 nM | – | – | –
C=CC(=O)N1CC2(CCN(c3nc4cc(-c5nccn5C)ccc4c(-c4ccc(F)cc4F)c3C#N)C2)C1 [Example 20-14, 4-(2,4-difluorophenyl)-7-(1-methyl-1H-imidazol-2-yl)-2-(2-(2-propenoyl)-2,6-diazaspiro[3.4]octan-6-yl)-3-quinolinecarbonitrile] | 243 nM | 9150 nM | – | 1350 nM | – | – | –
C=CC(=O)N1CC2(CCN(c3cc4ccccc4c(-c4c(C)ccc5[nH]ncc45)c3C#N)C2)C1 [Example 1-2, 3-(2-acryloyl-2,6-diazaspiro[3.4]octan-6-yl)-1-(5-methyl-1H-indazol-4-yl)-2-naphthonitrile] | – | 3710 nM | – | 580 nM | 158 nM | – | –
C=CC(=O)N1CC2(CCN(c3nc4c(c(-c5cc(O)ccc5Cl)c3C#N)CCN(C(C)C)C4)C2)C1 [Example 21-9, 4-(2-chloro-5-hydroxyphenyl)-7-(2-propanyl)-2-(2-(2-propenoyl)-2,6-diazaspiro[3.4]octan-6-yl)-5,6,7,8-tetrahydro-1,7-naphthyridine-3-carbonitrile] | 264 nM | > 5000 nM | – | > 5000 nM | – | – | –
C=CC(=O)N1CC2(CCN(c3nc4ccccc4c(-c4cc(O)cc5ccccc45)c3C#N)C2)C1 [Example 2-4, 4-(3-hydroxy-1-naphthalenyl)-2-(2-(2-propenoyl)-2,6-diazaspiro[3.4]octan-6-yl)-3-quinolinecarbonitrile] | – | 6250 nM | – | 2060 nM | 173 nM | – | –
C=CC(=O)N1CC2(CCN(c3nc4cc(-c5scnc5C)cnc4c(-c4cccc(C)c4C)c3C#N)C2)C1 (single isomer, unassigned) [Example 19-13, (M)-4-(2,3-dimethylphenyl)-7-(4-methyl-1,3-thiazol-5-yl)-2-(2-(2-propenoyl)-2,6-diazaspiro[3.4]octan-6-yl)-1,5-naphthyridine-3-carbonitrile] | 67 nM | > 5000 nM | – | 671 nM | – | – | –
